Converted amounts (≈) assume the structure as drawn.
Assays:
Assay type in all cases: physicochemical
[1] = Solubility of crystalline form A
[2] = Hygroscopicity (moisture uptake at relative humidity)
[3] = Stability of the form in pH 1 (0.1N HCl) solution; conditions: pH 1 (0.1N HCl) solution over 72 hour
[4] = pH of 1% suspension in water

For `Cc1cc(Nc2ncc(Cl)c(Nc3ccccc3S(=O)(=O)C(C)C)n2)c(OC(C)C)cc1C1CCNCC1` [Form A, 5-Chloro-N2-(2-isopropoxy-5-methyl-4-piperidin-4-yl-phenyl)-N4-[2-(propane-2-sulfonyl)-phenyl]-pyrimidine-2,4-diamine], the solubility ([1]; in water) was 0.21 mg/mL (≈ 0.376 mM), the solubility ([1]; organic solvent or mixture, in methanol (organic solvent)) was 40 mg/mL (≈ 71.7 mM) and the solubility ([1]; pH 1 solution (0.1N HCl), simulated gastric fluid, in pH 1) was 11 mg/mL (≈ 19.7 mM). The hygroscopicity ([2]; 84% relative humidity (RH)) was “relatively non-hygroscopic”, the moisture uptake ([2]; 93% RH) was “minor increase in moisture uptake” and the “conversion of form in solution” value [3] was “converted to a hydrochloride salt (non-stoichiometric)”. For the same molecule, the “pH of 1% suspension in water” value [4] was 6.86.
